This note sets out measurements from ChEMBL document CHEMBL2074152, “Structural determinants of substrates for the prostaglandin transporter PGT” (Mol Pharmacol, 1996).

SMILES strings stand for the structures.

For the experiment, the target named is Solute carrier organic anion transporter family member 2A1 (Rattus norvegicus, UniProt Q00910). In words: TP_TRANSPORTER: inhibition of PGE2 uptake in PGT-expressing HeLa cells. In kind it is functional, cell-based.
Compound `CCCCC[C@H](O)/C=C/[C@H]1C=CC(=O)[C@@H]1CCCCCCC(=O)O` [PROSTAGLANDIN A1] gave a Ki of 286 nM.

The compound `CCCCC[C@H](O)/C=C/C1=C(CCCCCCC(=O)O)C(=O)CC1` [PROSTAGLANDIN B1] registered a Ki of 71.2 nM. To `CCCCC[C@H](O)/C=C/[C@H]1C(=O)C[C@H](O)[C@@H]1CCCCCCC(=O)O` [PROSTAGLANDIN D1] belongs 162 nM; to `CCCCC[C@H](O)/C=C/[C@@H]1[C@@H](C/C=C\CCCC(=O)O)[C@@H]2C[C@H]1OO2` [PROSTAGLANDIN H2], 38.2 nM.

As a reminder, the Ki is the dissociation constant of the complex between target and ligand, obtained from inhibition or displacement.
